Results reported in patent US20110244047A1, “FILM-FORM PREPARATION AND METHOD FOR PRODUCING THE SAME” (NITTO DENKO CORPORATION, priority 2010, published 2011).

Assay: Particle size of the drug particles used (electron microscope, 200 particles)
Format: physicochemical
Settings: drug particles before incorporation
Experimental: The various drug particles used in the Examples and Comparative Examples were obtained passing the powder through a 32 μm, 50 μm or 90 μm sieve after pulverization, or obtained fine particles by a jet mill (product of Hosokawa Micron Group, spiral jet mill model 50AS) or a spray dryer (product of Büchi Labortechnik AG, mini spray dryer model B-290) after pulverization. The particle sizes of these drug particles was measured by electron microscope (product of Hitachi High-Technologies Corp., model TM-1000) and the 50 vol % average particle size was calculated from the measurement results of 200 particles. This value was used as the particle size index of the particles.

| Compound | 50 vol % average particle size [um] |
| --- | --- |
| COc1ccc2c(c1)c(CC(=O)O)c(C)n2C(=O)c1ccc(Cl)cc1 [Indomethacin particles, Indomethacin] | 1.8 |
| CC(C(=O)O)c1cccc(C(=O)c2ccccc2)c1 (centres unmarked) [Ketoprofen particles, Ketoprofen] | 1.7 |
| COc1ccc2[nH]cc(CCNC(C)=O)c2c1 [Melatonin particles A, Melatonin] | 2.1 |
| COc1ccc2[nH]cc(CCNC(C)=O)c2c1 [Melatonin particles B, Melatonin] | 28.4 |
| COc1ccc2[nH]cc(CCNC(C)=O)c2c1 [Melatonin particles C, Melatonin] | 180.5 |
